Measurements taken from patent publication US20170307631A1, “METHODS, SYSTEMS AND PRODUCTS FOR PREDICTING RESPONSE OF TUMOR CELLS TO A THERAPEUTIC AGENT AND TREATING A PATIENT ACCORDING TO THE PREDICTED RESPONSE” (Merrimack Pharmaceuticals, Inc., priority 2008, published 2017).

Assays:
ErbB2 = ErbB2 (Homo sapiens, UniProt P04626); settings: cited from earlier work
BT474-M3 xenograft = test: Xenograft tumor model treated with H3×B1D2, BT474-M3; format: in vivo, mouse; settings: 600 μg/injection every 3 days, negative RGR = tumor regression
Procedure: (§1) To characterize the in vivo response of tumors to H3×B1D2 treatment, a panel of tumor cell lines was tested in a xenograft tumor model such as described in Example 1. In the xenograft tumor models, mice (nu/nu mice: 4-5 week old female mice, athymic, nude, outbred background; Albino; purchased from Charles River Labs, Wilmington, Mass.) are implanted in the flank with 5×10^6-2×10^7 cells/mouse (depending on cell line) in […] subcutaneous injection. Mice are monitored for initial tumor growth. Tumors are allowed to grow for several days until the mean tumor volume is approximately 150-200 mm^3. The tumor volume is calculated as V=(π/6 (L×W^2). The mice are treated with the H3×B1D2 antibody at a dosage of 600 μg/injection every 3 days (q3d). Control mice are treated with phosphate buffered saline (PBS) or with wild-type HSA (human serum albumin). Tumor volume is measured for 40-80 days.
(§2) The control and treatment data from the in vivo xenograft experiments was fitted to exponential growth curves, using the following formula: […]
(§3) wherein V is the tumor volume, Vo is the tumor volume at time zero, k is the exponential growth rate and t is the time. The potency of H3×B1D2 in inhibiting tumor growth was represented as the ratio of treatment and control exponential growth rates for each cell line tested. This ratio was denoted “relative growth rate” (RGR) and is represented as: […]

LS180 xenograft = test: Xenograft tumor model treated with H3×B1D2, LS180; format: in vivo, mouse; settings: 600 μg/injection every 3 days, RGR of 1 = no effect
Procedure: as §1, §2, §3

[1] = tested on: pErbB3 and pAKT in ADRr cells; test: Inhibition of pErbB3 and pAKT by H3×B1D2 in ADRr cells; format: cell-based; settings: ADRr cells (low ErbB2), computational model and experimental data
Procedure: (§4) For stimulation of the cells, the cells are seeded in duplicate wells with 1000 μl complete media at 150,000 cells per well in 12 well tissue culture plates (for 96 half well ELISA) or in duplicate plate of 100 μl complete media at 20,000 cells per well in 96 well tissue culture plates (for 384 well ELISA). These cells are incubated overnight in a humidified atmosphere of 5% CO2, 95% air and 37 degrees Celsius. Cells are then switched to serum free media: RPMI-1640 media (Gibco) supplemented with, 2 mM L-glutamine (Gibco) and units/mL Pen-Strep (Gibco). Starved cells are incubated in a humidified atmosphere of 5% CO2, 95% air and 37 degrees Celsius for 20-24 hours prior to stimulation. For dose-time matrix studies, cells are stimulated with ligand (HRG) at 0, 1, 2, 3, 4, 5, 7, 10, 20, 30, 60 and 120 minutes. […]
(§5) Levels of protein phosphorylation in the stimulated cells are measured by ELISA. ErbB1, ErbB2, and ErbB3 are measured using R&D Systems Duoset IC kits (ErbB1 DYC1095-E, ErbB2 DYC1768-E, ErbB3 DYC1769-E). […] All ELISAs are visualized with SuperSignal ELISA Pico Chemiluminescent Substrate (Pierce, Catalog #37069) and luminescent signal is measured using a luminometer. […]

IGROV1 xenograft = test: Xenograft tumor model treated with H3×B1D2, IGROV1; format: in vivo, mouse; settings: 600 μg/injection every 3 days, RGR of 1 = no effect
Procedure: as §1, §2, §3

[2] = tested on: pErbB3 and pAKT in OVCAR8-HER2 cells; test: Inhibition of pErbB3 and pAKT by H3×B1D2 in OVCAR8-HER2 cells; format: cell-based; settings: OVCAR8-HER2 (higher ErbB2 expression) compared to OVCAR8
Procedure: as §4, §5

[3] = tested on: pErbB3 and pAKT signaling in different cell lines; test: Inhibition of HRG-induced pErbB3 and pAKT signaling by H3×B1D2, different cell lines; format: cell-based; settings: across different cell lines; 5 nM HRG stimulation, ten-minute lysis
Procedure: as §4, §5

Row | Compound | Lapatinib on-rate for binding to ErbB2 or 2-3 dimers before unit conversion (ErbB2) | relative growth rate (RGR = kH3×B1D2/kcontrol) (BT474-M3 xenograft) | relative growth rate (RGR = kH3×B1D2/kcontrol) (LS180 xenograft) | percentage of inhibition of pErbB3 and pAKT [1] | relative growth rate (RGR = kH3×B1D2/kcontrol) (IGROV1 xenograft) | inhibition percentage of pErbB3 and pAKT [2] | IC50 of inhibition of pErbB3 and pAKT signaling [3]
1 | CS(=O)(=O)CCNCc1ccc(-c2ccc3ncnc(Nc4ccc(OCc5cccc(F)c5)c(Cl)c4)c3c2)o1 [lapatinib] | Unit conversion calculated as 2.95e3 M^−1s^−1/ | – | – | – | – | – | –
2 | H3×B1D2: bispecific antibody, anti-ErbB3 single chain antibody H3 linked to anti-ErbB2 single chain antibody B1D2, SEQ ID NO: 41 | – | negative | greater than 1 | poor percentage of inhibition | greater than 1 | greater inhibition percentage | did not greatly change
